Molecular target: CDK9/cyclin T1 (Homo sapiens, UniProt P50750)
Test: CDK9/Cyclin T1 kinase assay
Type: biochemical
Settings: among all compounds tested at molecular level

Chain of CDK9/cyclin T1 (P50750 whole entry): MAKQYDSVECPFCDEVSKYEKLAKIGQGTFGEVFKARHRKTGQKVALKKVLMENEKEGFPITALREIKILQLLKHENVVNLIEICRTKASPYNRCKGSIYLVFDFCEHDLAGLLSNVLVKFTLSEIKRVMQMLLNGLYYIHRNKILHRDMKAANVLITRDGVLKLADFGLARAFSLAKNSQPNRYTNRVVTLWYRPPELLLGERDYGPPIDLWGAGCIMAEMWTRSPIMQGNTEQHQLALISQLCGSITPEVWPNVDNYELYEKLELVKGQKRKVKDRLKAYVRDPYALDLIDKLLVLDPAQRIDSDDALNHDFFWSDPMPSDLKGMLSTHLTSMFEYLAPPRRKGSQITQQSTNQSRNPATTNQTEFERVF
Chain of CDK9/cyclin T1 (O60563 whole entry partner): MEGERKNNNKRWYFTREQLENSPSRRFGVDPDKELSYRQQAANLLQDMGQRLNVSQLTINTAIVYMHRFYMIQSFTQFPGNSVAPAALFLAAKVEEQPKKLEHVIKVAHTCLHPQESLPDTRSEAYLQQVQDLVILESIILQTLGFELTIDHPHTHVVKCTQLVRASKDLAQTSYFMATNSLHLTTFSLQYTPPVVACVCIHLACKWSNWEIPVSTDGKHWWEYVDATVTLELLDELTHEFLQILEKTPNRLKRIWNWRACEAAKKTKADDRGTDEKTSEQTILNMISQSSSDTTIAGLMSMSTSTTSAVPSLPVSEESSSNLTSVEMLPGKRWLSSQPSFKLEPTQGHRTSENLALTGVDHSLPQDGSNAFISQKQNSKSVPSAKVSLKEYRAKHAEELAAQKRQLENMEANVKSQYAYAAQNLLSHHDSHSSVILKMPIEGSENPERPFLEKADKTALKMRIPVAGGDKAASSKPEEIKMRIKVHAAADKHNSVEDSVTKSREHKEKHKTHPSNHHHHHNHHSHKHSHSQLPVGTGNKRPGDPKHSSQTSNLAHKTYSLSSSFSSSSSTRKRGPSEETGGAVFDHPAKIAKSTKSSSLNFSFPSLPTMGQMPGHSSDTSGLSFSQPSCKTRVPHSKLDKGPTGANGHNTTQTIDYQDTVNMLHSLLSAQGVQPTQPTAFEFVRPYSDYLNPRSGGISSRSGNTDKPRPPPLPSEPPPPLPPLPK

Compound	selectivity to CDK9 over CDK2 (in words)
Fc1cnc(Nc2cccc(N3CCOCC3)c2)nc1Nc1c(F)cccc1F [Compound 6d]	moderate selectivity to CDK9 over CDK2
O=C(Nc1cccc(Nc2ncc(F)c(Nc3ccc(F)cc3)n2)c1)c1ccncc1 [Compound 9d]	moderate selectivity to CDK9 over CDK2

System: HIV-1 NL4-3
Test: Anti-HIV-1 assay
Type: cell-based
Settings: HIV-1 NL4-3, MT4 cells

Compound	inhibition in anti-HIV-1 assay (in words)
CC(=O)N1CCCN(C(=O)c2cccc(Nc3ncc(F)c(Nc4ccc(F)cc4)n3)c2)CC1 [Compound 11e]	Appreciable inhibition
Fc1cnc(Nc2cccc(N3CCOCC3)c2)nc1Nc1c(F)cccc1F [Compound 6d]	Appreciable inhibition
CN(C)CCNC(=O)c1cccc(Nc2ncc(F)c(Nc3ccc(F)cc3)n2)c1 [Compound 11f]	Appreciable inhibition

System: KB (nasopharyngeal carcinoma)
Test: SRB cytotoxic activity assay, KB
Type: cell-based, human
Settings: 3 days in culture, average of three independent measurements

Compound	GI50 KB
O=C(Nc1ccc2c(c1)OCO2)c1cccc(Nc2ncc(F)c(Nc3ccc(F)cc3)n2)c1 [Compound 11l]	14.08 ± 0.79 µM
O=C(Nc1ccc(C(F)(F)F)cc1)c1cccc(Nc2ncc(F)c(Nc3ccc(F)cc3)n2)c1 [Compound 11h]	> 10 µM
Fc1ccc(Nc2nc(Nc3cccc(N4CCOCC4)c3)ncc2F)cc1 [Compound 6c]	> 10 µM
CN1CCC(C(=O)Nc2cccc(Nc3ncc(F)c(Nc4ccc(F)cc4)n3)c2)CC1 [Compound 9f]	1.70 ± 0.80 µM
O=C(Nc1ccc(N2CCOCC2)cc1)c1cccc(Nc2ncc(F)c(Nc3ccc(F)cc3)n2)c1 [Compound 11i]	> 10 µM
O=C(Nc1cccc(Nc2ncc(F)c(Nc3ccc(F)cc3)n2)c1)c1cnccn1 [Compound 9e]	23.55 ± 3.92 µM
CN1CCN(C(=O)c2cccc(Nc3ncc(F)c(Nc4ccc(F)cc4)n3)c2)CC1 [Compound 11b]	12.58 ± 3.05 µM
CC(=O)N1CCCN(C(=O)c2cccc(Nc3ncc(F)c(Nc4ccc(F)cc4)n3)c2)CC1 [Compound 11e]	14.88 ± 2.20 µM
Cn1ccnc1NC(=O)c1cccc(Nc2ncc(F)c(Nc3ccc(F)cc3)n2)c1 [Compound 11p]	14.57 ± 1.70 µM
Fc1cnc(Nc2cccc(N3CCOCC3)c2)nc1Nc1c(F)cccc1F [Compound 6d]	> 10 µM
CN(C)c1ccc(C(=O)Nc2cccc(Nc3ncc(F)c(Nc4ccc(F)cc4)n3)c2)cc1 [Compound 9c]	> 10 µM
O=C(Nc1cccc(Nc2ncc(F)c(Nc3ccc(F)cc3)n2)c1)c1ccncc1 [Compound 9d]	5.28 ± 3.49 µM
O=C(Nc1cccc(Nc2ncc(F)c(Nc3ccc(F)cc3)n2)c1)c1cccc([N+](=O)[O-])c1 [Compound 9b]	15.10 ± 1.16 µM
CS(=O)(=O)N1CCN(C(=O)c2cccc(Nc3ncc(F)c(Nc4ccc(F)cc4)n3)c2)CC1 [Compound 11d]	20.29 ± 4.09 µM
Fc1cnc(Nc2cccc(N3CCOCC3)c2)nc1Nc1cc(Cl)cc(Cl)c1 [Compound 6a]	14.80 ± 1.02 µM
COc1ccc(N2CCOCC2)cc1Nc1ncc(F)c(Nc2ccc(F)cc2)n1 [Compound 6e]	> 10 µM

Compound	GI50 KB
CN(C)CCNC(=O)c1cccc(Nc2ncc(F)c(Nc3ccc(F)cc3)n2)c1 [Compound 11f]	4.16 ± 0.69 µM
CN(C)CC(=O)Nc1cccc(Nc2ncc(F)c(Nc3ccc(F)cc3)n2)c1 [Compound 9g]	1.26 ± 0.05 µM
O=C(NCCO)c1cccc(Nc2ncc(F)c(Nc3ccc(F)cc3)n2)c1 [Compound 11g]	12.39 ± 2.48 µM
COc1ccc(N2CCN(C)CC2)cc1Nc1ncc(F)c(Nc2ccc(F)cc2)n1 [Compound 6f]	0.96 ± 0.21 µM
COCC(=O)Nc1cccc(Nc2ncc(F)c(Nc3ccc(F)cc3)n2)c1 [Compound 9h]	6.25 ± 1.38 µM
O=C(c1cccc(Nc2ncc(F)c(Nc3ccc(F)cc3)n2)c1)N1CCCCC1 [Compound 11c]	14.78 ± 2.53 µM
O=C(Nc1nccs1)c1cccc(Nc2ncc(F)c(Nc3ccc(F)cc3)n2)c1 [Compound 11o]	> 10 µM
O=C(Nc1cccc(Nc2ncc(F)c(Nc3ccc(F)cc3)n2)c1)c1ccccc1 [Compound 9a]	> 10 µM
CN1CC[C@H](c2c(O)cc(O)c3c(=O)cc(-c4ccccc4Cl)oc23)[C@H](O)C1 [FVP, flavopiridol, reference compound]	0.16 ± 0.007 µM
O=C(Nc1ccccn1)c1cccc(Nc2ncc(F)c(Nc3ccc(F)cc3)n2)c1 [Compound 11n]	20.03 ± 10.96 µM
COc1cc(NC(=O)c2cccc(Nc3ncc(F)c(Nc4ccc(F)cc4)n3)c2)cc(OC)c1 [Compound 11k]	15.47 ± 1.58 µM
Fc1cnc(Nc2cccc(N3CCOCC3)c2)nc1Nc1ccc(Cl)c(Cl)c1 [Compound 6b]	> 10 µM
O=C(c1cccc(Nc2ncc(F)c(Nc3ccc(F)cc3)n2)c1)N1CCOCC1 [Compound 11a]	14.58 ± 2.93 µM
COc1ccc(NC(=O)c2cccc(Nc3ncc(F)c(Nc4ccc(F)cc4)n3)c2)cc1 [Compound 11j]	> 10 µM
O=C(Nc1cc(Cl)cc(Cl)c1)c1cccc(Nc2ncc(F)c(Nc3ccc(F)cc3)n2)c1 [Compound 11m]	20.08 ± 1.06 µM
